How the values were obtained:
Experiment in all cases: Test E flooded paddy rice and weeds
Format in all cases: in vivo
Settings in all cases: applied to paddy water, 21 days, scale 0 to 100
[1] = tested on: barnyardgrass (Echinochloa crus-galli)
From the text: (§1) Three plastic pots (ca. 16-cm diameter) for each application were partially filled with sterilized Tama silt loam soil comprising a 35:50:15 ratio of sand, silt and clay and 2.6% organic matter. Separate plantings for each of the three pots were as follows. Seeds from the U.S. of ducksalad (Heteranthera limosa), sedge (smallflower umbrella sedge, Cyperus difformis), ricefield bulrush (Scirpus mucronatus) and redstem (purple redstem, Ammannia coccinea), were planted into one 16-cm pot for each rate. Seeds from the U.S. of flatsedge (rice flatsedge, Cyperus iria), sprangletop (bearded (i.e. Brdd.) sprangletop, Leptochloa fascicularis), one stand of 9 or 10 water seeded rice seedlings (Oryza sativa cv. ‘Japonica—M202’), and two stands of 3 or 4 transplanted rice seedlings (Oryza sativa cv. ‘Japonica—M202’) were planted into one 16-cm pot for each rate. Seeds from the U.S. of barnyardgrass (Echinochloa crus-galli), late watergrass (Echinochloa oryzicola), early watergrass (Echinochloa oryzoides) and junglerice (Echinochloa colona) were planted into one 16-cm pot for each rate. Plantings were sequential so that crop and weed species were at the 2.0 to 2.5-leaf stage at time of treatment.
(§2) Potted plants were grown in a greenhouse with day/night temperature settings of 30/27° C., and supplemental balanced lighting was provided to maintain a 16-hour photoperiod. Test pots were maintained in the greenhouse until test completion.
(§3) At time of treatment, test pots were flooded to 3 cm above the soil surface, treated by application of test compounds directly to the paddy water, and then maintained at that water depth for the duration of the test. Effects of treatments on rice and weeds were visually evaluated by comparison to untreated controls after 21 days. Plant response ratings, summarized in Table E, are based on a scale of 0 to 100 where 0 is no effect and 100 is complete control. A dash (-) response means no test result.

[2] = tested on: ducksalad (Heteranthera limosa)
From the text: as §1, §2, §3

[3] = tested on: early watergrass (Echinochloa oryzoides)
From the text: as §1, §2, §3

[4] = tested on: flatsedge (rice flatsedge, Cyperus iria)
From the text: as §1, §2, §3

[5] = tested on: junglerice (Echinochloa colona)
From the text: as §1, §2, §3

[6] = tested on: late watergrass (Echinochloa oryzicola)
From the text: as §1, §2, §3

[7] = tested on: redstem (purple redstem, Ammannia coccinea)
From the text: as §1, §2, §3

[8] = tested on: ricefield bulrush (Scirpus mucronatus)
From the text: as §1, §2, §3

[9] = tested on: sedge (smallflower umbrella sedge, Cyperus difformis)
From the text: as §1, §2, §3

[10] = tested on: transplanted rice seedlings (Oryza sativa cv. ‘Japonica—M202’)
From the text: as §1, §2, §3

[11] = tested on: water seeded rice seedlings (Oryza sativa cv. ‘Japonica—M202’)
From the text: as §1, §2, §3

Cc1ccc(-n2c(-c3ccccc3)ncc(C(=O)C3=C(O)CCCC3=O)c2=O)c(C)c1 [Compound 28]
Plant response rating, Barnyardgrass, Flood ([1]; 32 g ai/ha): 0 | Plant response rating, Barnyardgrass, Flood ([1]; 64 g ai/ha): 0 | Plant response rating, Barnyardgrass, Flood ([1]; 125 g ai/ha): 0 | Plant response rating, Barnyardgrass, Flood ([1]; 250 g ai/ha): 0 | Plant response rating, Ducksalad, Flood ([2]; 32 g ai/ha): 0 | Plant response rating, Ducksalad, Flood ([2]; 64 g ai/ha): 0 | Plant response rating, Ducksalad, Flood ([2]; 125 g ai/ha): 80 | Plant response rating, Ducksalad, Flood ([2]; 250 g ai/ha): 100 | Plant response rating, Watergrass, Early, Flood ([3]; 32 g ai/ha): 0 | Plant response rating, Watergrass, Early, Flood ([3]; 64 g ai/ha): 0 | Plant response rating, Watergrass, Early, Flood ([3]; 125 g ai/ha): 0 | Plant response rating, Watergrass, Early, Flood ([3]; 250 g ai/ha): 20 | Plant response rating, Flatsedge, Rice, Flood ([4]; 32 g ai/ha): 0 | Plant response rating, Flatsedge, Rice, Flood ([4]; 64 g ai/ha): 0 | Plant response rating, Flatsedge, Rice, Flood ([4]; 125 g ai/ha): 0 | Plant response rating, Flatsedge, Rice, Flood ([4]; 250 g ai/ha): 45 | Plant response rating, Junglerice, Flood ([5]; 32 g ai/ha): 0 | Plant response rating, Junglerice, Flood ([5]; 64 g ai/ha): 0 | Plant response rating, Junglerice, Flood ([5]; 125 g ai/ha): 0 | Plant response rating, Junglerice, Flood ([5]; 250 g ai/ha): 0 | Plant response rating, Watergrass, Late, Flood ([6]; 32 g ai/ha): 0 | Plant response rating, Watergrass, Late, Flood ([6]; 64 g ai/ha): 0 | Plant response rating, Watergrass, Late, Flood ([6]; 125 g ai/ha): 0 | Plant response rating, Watergrass, Late, Flood ([6]; 250 g ai/ha): 0 | Plant response rating, Redstem, Flood ([7]; 32 g ai/ha): 0 | Plant response rating, Redstem, Flood ([7]; 64 g ai/ha): 40 | Plant response rating, Redstem, Flood ([7]; 125 g ai/ha): 50 | Plant response rating, Redstem, Flood ([7]; 250 g ai/ha): 90 | Plant response rating, Bulrush, Ricefield, Flood ([8]; 32 g ai/ha): 20 | Plant response rating, Bulrush, Ricefield, Flood ([8]; 64 g ai/ha): 30 | Plant response rating, Bulrush, Ricefield, Flood ([8]; 125 g ai/ha): 35 | Plant response rating, Bulrush, Ricefield, Flood ([8]; 250 g ai/ha): 65 | Plant response rating, Sedge, Umbrella, Flood ([9]; 32 g ai/ha): 0 | Plant response rating, Sedge, Umbrella, Flood ([9]; 64 g ai/ha): 85 | Plant response rating, Sedge, Umbrella, Flood ([9]; 125 g ai/ha): 90 | Plant response rating, Sedge, Umbrella, Flood ([9]; 250 g ai/ha): 100 | Plant response rating, Rice, Transplanted, Flood ([10]; 32 g ai/ha): 0 | Plant response rating, Rice, Transplanted, Flood ([10]; 64 g ai/ha): 15 | Plant response rating, Rice, Transplanted, Flood ([10]; 125 g ai/ha): 15 | Plant response rating, Rice, Transplanted, Flood ([10]; 250 g ai/ha): 15 | Plant response rating, Rice, Water Seeded, Flood ([11]; 32 g ai/ha): 45 | Plant response rating, Rice, Water Seeded, Flood ([11]; 64 g ai/ha): 60 | Plant response rating, Rice, Water Seeded, Flood ([11]; 125 g ai/ha): 65 | Plant response rating, Rice, Water Seeded, Flood ([11]; 250 g ai/ha): 85

COc1ccc(-n2c(-c3ccccc3)ncc(C(=O)C3=C(O)CCCC3=O)c2=O)cc1OC [Compound 218]
Plant response rating, Barnyardgrass, Flood ([1]; 32 g ai/ha): 0 | Plant response rating, Barnyardgrass, Flood ([1]; 64 g ai/ha): 0 | Plant response rating, Barnyardgrass, Flood ([1]; 125 g ai/ha): 30 | Plant response rating, Barnyardgrass, Flood ([1]; 250 g ai/ha): 95 | Plant response rating, Ducksalad, Flood ([2]; 32 g ai/ha): 80 | Plant response rating, Ducksalad, Flood ([2]; 64 g ai/ha): 85 | Plant response rating, Ducksalad, Flood ([2]; 125 g ai/ha): 95 | Plant response rating, Ducksalad, Flood ([2]; 250 g ai/ha): 100 | Plant response rating, Watergrass, Early, Flood ([3]; 32 g ai/ha): 0 | Plant response rating, Watergrass, Early, Flood ([3]; 64 g ai/ha): 20 | Plant response rating, Watergrass, Early, Flood ([3]; 125 g ai/ha): 20 | Plant response rating, Watergrass, Early, Flood ([3]; 250 g ai/ha): 60 | Plant response rating, Flatsedge, Rice, Flood ([4]; 32 g ai/ha): 75 | Plant response rating, Flatsedge, Rice, Flood ([4]; 64 g ai/ha): 70 | Plant response rating, Flatsedge, Rice, Flood ([4]; 125 g ai/ha): 70 | Plant response rating, Flatsedge, Rice, Flood ([4]; 250 g ai/ha): 75 | Plant response rating, Junglerice, Flood ([5]; 32 g ai/ha): 0 | Plant response rating, Junglerice, Flood ([5]; 64 g ai/ha): 0 | Plant response rating, Junglerice, Flood ([5]; 125 g ai/ha): 65 | Plant response rating, Junglerice, Flood ([5]; 250 g ai/ha): 100 | Plant response rating, Watergrass, Late, Flood ([6]; 32 g ai/ha): 20 | Plant response rating, Watergrass, Late, Flood ([6]; 64 g ai/ha): 40 | Plant response rating, Watergrass, Late, Flood ([6]; 125 g ai/ha): 40 | Plant response rating, Watergrass, Late, Flood ([6]; 250 g ai/ha): 70 | Plant response rating, Redstem, Flood ([7]; 32 g ai/ha): 65 | Plant response rating, Redstem, Flood ([7]; 64 g ai/ha): 65 | Plant response rating, Redstem, Flood ([7]; 125 g ai/ha): 75 | Plant response rating, Redstem, Flood ([7]; 250 g ai/ha): 80 | Plant response rating, Bulrush, Ricefield, Flood ([8]; 32 g ai/ha): 80 | Plant response rating, Bulrush, Ricefield, Flood ([8]; 64 g ai/ha): 80 | Plant response rating, Bulrush, Ricefield, Flood ([8]; 125 g ai/ha): 90 | Plant response rating, Bulrush, Ricefield, Flood ([8]; 250 g ai/ha): 100 | Plant response rating, Sedge, Umbrella, Flood ([9]; 32 g ai/ha): 85 | Plant response rating, Sedge, Umbrella, Flood ([9]; 64 g ai/ha): 95 | Plant response rating, Sedge, Umbrella, Flood ([9]; 125 g ai/ha): 100 | Plant response rating, Sedge, Umbrella, Flood ([9]; 250 g ai/ha): 100 | Plant response rating, Rice, Transplanted, Flood ([10]; 32 g ai/ha): 0 | Plant response rating, Rice, Transplanted, Flood ([10]; 64 g ai/ha): 0 | Plant response rating, Rice, Transplanted, Flood ([10]; 125 g ai/ha): 0 | Plant response rating, Rice, Transplanted, Flood ([10]; 250 g ai/ha): 10 | Plant response rating, Rice, Water Seeded, Flood ([11]; 32 g ai/ha): 15 | Plant response rating, Rice, Water Seeded, Flood ([11]; 64 g ai/ha): 0 | Plant response rating, Rice, Water Seeded, Flood ([11]; 125 g ai/ha): 20 | Plant response rating, Rice, Water Seeded, Flood ([11]; 250 g ai/ha): 35
